Reference: patent US20090170899A1, “Stimulators of 5-HT4 receptors and uses thereof” (priority 2004, published 2009)

Tests used:
DRN 5-HT neurons = conditions: cited from earlier work; for enhancement of DRN 5-HT neuron mean firing rate: Lucas et al., 2005
[1] = Forced swimming test (FST); type: in vivo, rat; conditions: for change of total time of immobility in FST: Example 3, single i.p. 30 min before test, citalopram or paroxetine 10 mg/kg; for change of total time of immobility in FST / time of immobility in FST: prucalopride 2.5 mg/kg, RS 67333 1.5 mg/kg; for time of immobility in FST: 4 min observation, i.p. 30 min before test, control 88.2±7.2
Description: The “forced swimming test” (FST) is a behavioural test for rodents, which predicts the efficacy of antidepressant drugs (Porsolt et al., 1977; Lucki, 1997). […] The widespread use of this model is largely a result of its ease of use, reliability across laboratories and ability to detect a broad spectrum of antidepressant agents. The test is based on the observation that rats, following initial escape-oriented movements (climbing and swimming), develop an immobile posture when placed in an inescapable cylinder of water. If they are replaced in the same testing apparatus 24 h later, they resume this immobile posture quickly. The immobility is thought to reflect either a failure of persistence in escape-directed behavior (i.e. behavioral despair) or the development of passive behavior that disengages the animal from active forms of coping with stressful stimuli. If antidepressant treatments are given between the two exposures, the subjects will actively persist engaging in escape-directed behaviors for longer periods of time than after vehicle treatment. This will be reflected by a reduction of immobility time, and by an increase of climbing attempts. […] The combination effect of a particular 5-HT4 agonist and a SSRI may be evaluated using the FST model.
Experiments were carried out in male Sprague-Dawley rats (Charles River, St Constant, Québec). We used the FST as previously described (Porsolt et al., 1977). Briefly, the rats experienced a pretest session followed 24 hours later by a test session. For both the pretest and the test sessions, conducted under low illumination (12 lx), the rats were placed in a plastic cylindrical tank (50 cm high by 20 cm in diameter) filled with water at […], with a depth of 40 cm, for which the hind limbs could not reach the tank floor. In all experiments, the pretest was carried out for 15 min and the test for 5 min in the same tank but only the last 4 min were analyzed. Following either pretest or test sessions, rats were dried with a towel and kept warm for 30 min before returning in their home cage. A digital camera recorded on line animal's behavior during the FST, and both time of immobility and climbing attempts were counted. Citalopram hydrobromide (10 mg/kg, i.p.) or paroxetine (10 mg/kg, i.p.) and prucalopride hydrochloride (2.5 mg/kg, i.p.) or RS 67333 hydrochloride (1.5 mg/kg, i.p.) were administered simultaneously 30 minutes before the test session. Animals were divided into 4 groups: vehicle/vehicle, 5-HT4 agonist/vehicle, vehicle/SSRI and 5-HT4 agonist/SSRI. For each compound, distilled water was used as the vehicle. All drug dosages refer to the free base.
Behavioral experiments. We used the FST as previously described (Porsolt et al., 1977). Briefly, rats experienced a pre-test session followed 24 hours later by a test session. For both the pre-test and the test sessions, conducted under low illumination (12 lx), the animals were placed in a plastic cylindrical tank (50 cm high by 20 cm in diameter) filled with water at […], with a depth of 40 cm, for which the hind limbs could not reach the tank floor. In all experiments, the pre-test was carried out for 15 min and the test for 5 min in the same tank but the last 4 min only were analyzed. Prucalopride (2.5 mg/kg, i.p.) and RS 67333 (1.5 mg/kg, i.p.) were administered 30 min before the test session. Following either pre-test or test sessions, rats were dried with a towel and kept warm for 30 min before returning in their home cage. A camera coupled with a computer recorded on line animal behavior during the FST through a specialized digital interface (Videotrack, ViewPoint, Lyon, France). This interface underscored on line the subtraction of video frames. Immobility time in FST was derived from the number of frames (every 40 ms) being below a predefined threshold over FST duration.

[2] = acute prucalopride 1000 μg/kg i.v., Lucas and Debonnel, 2002

Which results are given for `CCCCN1CCC(CCC(=O)c2cc(Cl)c(N)cc2OC)CC1` [RS 67333, 1-(4-amino-5-chloro-2-methoxyphenyl)-3-(1-n-burtl-4-piperidinyl)-1-propanone]?
enhancement of DRN 5-HT neuron mean firing rate (DRN 5-HT neurons): 70%; change of total time of immobility in FST [1]: very similar effect; time of immobility in FST ([1]; Example 6): 42.7 ± 4.9 s; increase of climbing in FST ([1]; Example 6, RS 67333 1.5 mg/kg i.p.): +94%

What does the source list for `COCCCN1CCC(NC(=O)c2cc(Cl)c(N)c3c2OCC3)CC1` [prucalopride]?
enhancement of DRN 5-HT neuron mean firing rate (DRN 5-HT neurons): 40-45%; increase of DRN 5-HT activity in responder neurons (DRN 5-HT neurons; [2]): around 100%; share of 5-HT neurons responding ("responders") (DRN 5-HT neurons; [2]): 47%; change of total time of immobility in FST [1]: −54%; time of immobility in FST ([1]; Example 6): 43.4 ± 3.5 s
